# Test results reported in patent publication EP1060182B1, “NOVEL PRODRUGS FOR PHOSPHORUS-CONTAINING COMPOUNDS” (Metabasis Therapeutics, Inc., priority 1998, dated 1999).
# pIC50: −log10 of the molar value. Entries after “also recorded” stand apart in the source; their conditions may differ.
# Legend:
# [1] = i.v., over 2.5 minutes; cited from earlier work
# [2] = Liver ara-ATP and plasma/urine ara-hypoxanthine after intravenous dosing (Example O); format: in vivo, rat
# Procedure: The temporal profile of ara-hypoxanthine and ara-ATP generation following intravenous administration of 30.1 and free ara-AMP was compared in the rat.
# Method: 30.1 and ara-AMP (Sigma) were administered to normal, fasted rats intravenously (in saline) via tail vein catheters. At appropriate time points following drug a administration, animals were lightly anesthetized with halothane. The peritoneal cavity was then opened and a blood sample was obtained from the abdominal vena cava and the liver freeze-clamped and excised.
# The blood samples were heparinized and plasma was prepared. Plasma samples (100 µL) were mixed with 4 N perchloric acid (40 µL), vortexed, and then clarified by centrifugation. The supernatants were analyzed for ara-hypoxanthine by HPLC with use of a Beckman Ultrasphere ODS column (4.6 x 150 mm). The column was eluted with 100 mM acetic acid at a flow rate of 1.0 mL/min. The eluent was monitored by UV absorbance at 254 nm.
# Livers were immediately homogenized in 3 volumes of 10% perchloric acid (w/w), and the extracts clarified by centrifugation at 2500 x g (5 minutes). The resulting supernatants were removed and neutralized with 0.3 volumes of 3M KOH/ 3M KHCO3. The neutralized liver extracts were then spun in an Eppendorf microfuge at 10,000 rpm (20 minutes, 4°C). The supernatants were analyzed for ara-ATP content by reverse phase HPLC (HP1050) using a Whatman Partisphere SA column (4.6 x 125 mm). A gradient from 0.3M ammonium phosphate buffer pH 3.5 to 0.8M ammonium phosphate pH 3.5 was run (1 ml/minute flow rate).
# Renal excretion of araH following i.v. administration of 30.1 or ara-AMP was determined as described in Example Q.
# [3] = test system: isolated rat hepatocytes; assay: Active drug metabolites formed after prodrug activation in isolated rat hepatocytes (Example K); settings: for Product concentration nmoles/g cells (PMEApp): time point 4h
# Method: Methods: Hepatocytes were prepared and incubated as described in Example I. 28.4 and 30.1 and their respective parent compounds, PMEA and ara-AMP, were dissolved in DMSO or methanol to yield 10 mM stock solutions, and then diluted into the cell suspension to yield a final concentration of 100 µM. At appropriate time points over the course of 2-4 hours, aliquots of the cell suspension were removed and spun through a silicon/mineral oil layer into 10% perchloric acid. The cell extracts in the acid layers were neutralized by the addition of 0.3 volumes of 3M KOH/3M KHCO3, and the extract was then centrifuged, filtered (0.2 micron filter) and loaded onto an anion exchange HPLC column equilibrated with 70% A (10 mM ammonium phosphate pH 3.5, 6% ETOH) and 30% B (1 M ammonium phosphate pH 3.5, 6% ETOH). Ara-ATP and PMEApp were eluted with a gradient to 80% B. Detection was at 254 nm.
# [4] = intravenous administration to human patients; cited from earlier work
# [5] = test system: recombinant CYP3A4; assay: Activation by recombinant CYP3A4 (Example G); format: in vitro ADME; settings: 28.4 at 100 µM, 37°C, NADPH dependent, linear for 30 minutes
# Procedure: Activation of 30.1 and 28.4 was evaluated in reactions containing microsomes from baculovirus-infected insect cells co-expressing recombinant CYP3A4 and cytochrome p450 reductase (Panvera Corp., Madison, WI).
# Methods: Reaction mixture composition was similar to that described in Example E. Reactions were terminated by addition of methanol to a final concentration of 60%, and products typically analyzed by HPLC with use of a YMC reverse phase C8 column (250 x 4.6 mm). […] The effluent was monitored at 254 nm.
# [6] = Hepatic PMEA-diphosphate and plasma PMEA after intravenous dosing (Example P); format: in vivo, rat; settings: 10 mg/kg PMEA equivalents i.v.
# [7] = test system: glucose production in isolated rat hepatocytes; assay: Inhibition of glucose production in rat hepatocytes (Example J); format: cell-based; settings: 1 hour, lactate 10 mM / pyruvate 1 mM
# Procedure: Select prodrugs of FBPase inhibitors were tested for inhibition of glucose production in isolated rat hepatocytes.
# After a 10 minute equilibration period, lactate and pyruvate were added to 10 mM and 1 mM concentrations, respectively. Addition of gluconeogenic substrates was immediately followed by that of appropriate concentrations of test compound. After 1 hour, an aliquot (0.25 ml) was removed, transferred to an Eppendorf tube and centrifuged. The supernatant (50 µl) was then assayed for glucose content using a Glucose Oxidase kit (Sigma Chemical Co.) as per the manufacturer's instructions.
# [8] = test system: microsomal fraction of rat liver; assay: Activation by rat liver microsomes (Example D); format: in vitro ADME; settings: 100 µM 7.1, 37°C; in the presence, but not in the absence of, NADP+; rate linearly dependent on microsomal protein
# Procedure: The pellet was resuspended in homogenization buffer and recentrifuged.
# Reactions were carried out at 37°C.
# Reactions are monitored spectrophotometrically at 340 nm.
# [9] = test system: isolated rat hepatocytes; assay: Activation to parent compound in isolated rat hepatocytes (Example I); format: cell-based; settings: 100 µM prodrug, peak within 15 minutes of addition
# Text: An ODS column was used for analysis. […] Detection was at 310 nm.
# [10] = test system: microsomal fraction of human liver; assay: Activation by human liver microsomes (Example E); format: in vitro ADME; settings: 250 µM prodrug, 37°C, NADPH-generating system
# Procedure: 7.1, 1.3, and 30.1 were tested for conversion to their respective parent compounds by the microsomal fraction of human liver.
# [11] = Stability in plasma (Example C); format: in vitro ADME, rat; settings: 37°C, 5-8 hours, reverse phase HPLC
# Method: Methods: Compounds were incubated in plasma at 37°C, and aliqouts removed at appropriate time points over the course of 5-8 hours. The aliquots were extracted with 1.5 volumes of methanol and clarified by centrifugation. Supernatants were then evaporated to dryness and the residues reconstituted with 100 µL of isotonic saline and then analyzed by reverse phase HPLC.
# [12] = test system: Rat liver microsomes; settings: linear over a 5 hour reaction period, equimolar products
# Procedure: 1.1 was evaluated for microsome-catalyzed conversion to parent compound 2-{5-[9-(2-Phenylethyl)-8-adeninyl]} furanylphosphonic acid and phenol, an expected byproduct of the reaction.
# Methods: Rat liver microsomes were prepared as described in Example I. Reaction conditions, sample processing, and HPLC analysis were as described in Example D. Phenol was identified by HPLC by its retention time and spectral characteristics relative to an authentic standard.
# [13] = in rodents; cited from earlier work
smiles,measurement,setting,value
"Nc1ncnc2c1ncn2[C@@H]1O[C@H](COP(=O)(O)O)[C@@H](O)[C@@H]1O [araAMP, reference compound]",drop of plasma ara-AMP levels,[1],greater than 90%
same,persistence of ara-hypoxanthine in plasma,[2]; ara-AMP i.v. at equivalent doses,8 h
same,ara-hypoxanthine (araH) in plasma,"[2]; i.v., 30.1 at 10 and 3 mg/kg, ara-AMP at equivalent doses",µmolar levels
same,plasma half-life of free ara-AMP relative to 30.1,[2]; judged by inability to detect the compound in plasma,considerably shorter
same,Product concentration nmoles/g cells (ara-ATP),"[3]; Dose 100 µM, time point 2h",212±0.6 nmoles/g cells
same,ara-AMP in plasma,[4],not detected in plasma
"Nc1ncnc2c1ncn2CCOCP(=O)(O)O [PMEA, 9-(2-phosphonylmethoxyethyl) adenine, reference compound]",Product concentration nmoles/g cells (PMEApp),[3]; Dose 250 µM,120 nmoles/g cells
"Nc1ncnc2c1ncn2CCOCP1(=O)OCCC(c2ccncc2)O1 (centres unmarked) [Compound 28.4, 9-[2-(1-(4-Pyridyl)-1,3-propylphosphonomethoxy)ethyl]adenine]",rate of formation of PMEA,[5],3.1 ± 0.1 nmoles/ min/ nmole CYP3A4
same,PMEA-diphosphate in liver,[6],readily detectable levels
same,Plasma PMEA levels relative to bisPOM-PMEA,[6],greater than 10 fold lower
same,Product concentration nmoles/g cells (PMEApp),[3]; Dose 100 µM,169 nmoles/g cells
"CC(C)Cn1c(-c2ccc(P3(=O)OCC(CO)CO3)o2)nc2ccc(Cl)cc21 (centres unmarked) [Compound 7.1, 6-Chloro-1-isobutyl-2-{5-[2'-(hydroxymethyl)-propan-1',3'-yl]phosphono-2-furanyl}benzimidazole]",inhibition at 100 µM,"[7]; Rattus norvegicus, Hepatocyte, read-out: % inhibition @ 100 µM, 100 µM",65%
same,pIC50,"[7]; Rattus norvegicus, Hepatocyte",4.32
same,conversion to parent compound,[8],converted to parent compound
same,peak intrahepatocyte levels of 6-Chloro-1-isobutyl-2-(2-Phosphono-5-furanyl)benzimidazole,[9],approximately 700 nmoles/g cells
same,rate of formation of parent compound,[10],0.85 nmoles/mg microsomal protein/minute
"CC(C)(C)C(=O)OCOP(=O)(COCCn1cnc2c(N)ncnc21)OCOC(=O)C(C)(C)C [bisPOM-PMEA, reference compound]",PMEA-diphosphate in liver,[6],readily detectable levels
"CC(C)(C)Cn1c(-c2ccc(P3(=O)OC4CC(O)CC(C4)O3)o2)nc2c(N)ncnc21 (centres unmarked) [Compound 1.2, 6-Amino-8-(5'-hydroxyl-1',3'-cyclohexyl)phosphonofuranyl-9-neopentyl purine]",metabolism / degradation in fresh rat plasma,[11],not degraded
"Nc1ncnc2c1nc(-c1ccc(P3(=O)OC4CC(O)CC(C4)O3)o1)n2CCc1ccccc1 (centres unmarked) [Compound 1.1, 6-Amino-8-(5'-hydroxyl-1',3'-cyclohexyl)phosphonofuranyl-9-phenethyl purine]",rate of generation of 2-{5-[9-(2-Phenylethyl)-8-adeninyl]}furanylphosphonic acid and phenol,[12],15 pmoles /mg microsomal protein/minute
same,pIC50,[7],4.11
same,metabolism / degradation in fresh rat plasma,[11],not degraded; also recorded: no evidence of metabolism
CC(C)(C)C(=O)OCOP(=O)(OCOC(=O)C(C)(C)C)C(CCCc1cccc(Oc2ccccc2)c1)S(=O)(=O)O (centres unmarked) [BMS 188494],oral bioavailability,[13],< 2%
"CC(=O)OCC1COP(=O)(c2ccc(-c3nc4c(N)ncnc4n3CC(C)(C)C)o2)OC1 (centres unmarked) [Compound 7.5, 6-Amino-9-neopentyl-8-{5-[2'-(acetoxymethyl)-propan-1',3'-yl]phosphono-2-furanyl}purine]",pIC50,[7],4.89
